From US7449463B2, “Morpholinyl containing benzimidazoles as inhibitors of respiratory syncytial virus replication” (Tibotec Pharmaceuticals Ltd., priority 2003, dated 2008)

Test system: not given
Test: not given
Settings: not given

Q: For Cc1ccc(S(=O)(=O)CCO)c(NCc2ccc3nc(NCCCN4CCOCC4)n(Cc4nc(C)ccc4O)c3c2)c1 [Compound 12], which melting point is on record?
A: 170 °C

Test system: Respiratory Syncytial Virus
Test: microbe, parasite or virus in culture
Assay type: cell-based
Settings: RSV-infected HeLa cells, MTT readout seven days after infection; −log of EC50 in molar units
Source text: In vitro Screening for Activity against Respiratory Syncytial Virus.
The percent protection against cytopathology caused by viruses (antiviral activity or EC50) achieved by tested compounds and their cytotoxicity (CC50) are both calculated from dose-response curves. The selectivity of the antiviral effect is represented by the selectivity index (SI), calculated by dividing the CC50 (cytotoxic dose for 50% of the cells) by the EC50 (antiviral activity for 50% of the cells).
Automated tetrazolium-based colorimetric assays were used for determination of EC50 and CC50 of test compounds. Flat-bottom, 96-well plastic microtiter trays were filled with 180 μl of Eagle's Basal Medium, supplemented with 5% FCS (0% for FLU) and 20 mM Hepes buffer. Subsequently, stock solutions (7.8× final test concentration) of compounds were added in 45 μl volumes to a series of triplicate wells so as to allow simultaneous evaluation of their effects on virus- and mock-infected cells. Five five-fold dilutions were made directly in the microtiter trays using a robot system. Untreated virus controls, and HeLa cell controls were included in each test. Approximately 100 TCID50 of Respiratory Syncytial Virus was added to two of the three rows in a volume of 50 μl. The same volume of medium was added to the third row to measure the cytotoxicity of the compounds at the same concentrations as those used to measure the antiviral activity. After two hours of incubation, a suspension (4×10^5 cells/ml) of HeLa cells was added to all wells in a volume of 50 μl. The cultures were incubated at 37° C. in a 5% CO2 atmosphere. Seven days after infection the cytotoxicity and the antiviral activity was examined spectrophotometrically. To each well of the microtiter tray, 25 μl of a solution of MTT (3-(4,5-dimethylthiazol-2-yl)-2,5-diphenyltetrazolium bromide) was added. The trays were further incubated at 37° C. for 2 hours, after which the medium was removed from each cup. Solubilization of the formazan crystals was achieved by adding 100 μl 2-propanol. Complete dissolution of the formazan crystals were obtained after the trays have been placed on a plate shaker for 10 min. Finally, the absorbances were read in an eight-channel computer-controlled photometer (Multiskan MCC, Flow Laboratories) at two wavelengths (540 and 690 nm). The absorbance measured at 690 nm was automatically subtracted from the absorbance at 540 nm, so as to eliminate the effects of non-specific absorption.

Q: With Cc1ccc(O)c(Cn2c(NCCCN3CCOCC3)nc3ccccc32)n1 [compound 155] as the molecule, how does the Activity read?
A: 6.8

Same assay, conditions: human respiratory syncytial virus, 168 h; RSV-infected HeLa cells, MTT readout seven days after infection; −log of EC50 in molar units

Q: For Cc1ccc(S(=O)(=O)CCO)c(NCc2ccc3nc(NCCCN4CCOCC4)n(Cc4nc(C)ccc4O)c3c2)c1 [Compound 12], which EC50 is on record?
A: 0.251 nM

Same assay, conditions: pEC50 (−log of EC50 when expressed in molar units), protection against RSV cytopathology

Q: Which Activity does the source give for OCCCc1ccc(C(F)(F)F)cc1NCc1ccc2nc(NCCCN3CCOCC3)n(Cc3cc(Br)ccc3O)c2c1 [Compound 217] here?
A: 8.7

Q: With COc1ccc(C)nc1Cn1c(NCCCN2CCOCC2)nc2ccc(CNc3cc(C)ccc3CCO)cc21 [Compound 220] as the molecule, how does the Activity read?
A: 8.6

Q: For Cn1cnc2c(Cn3c(NCCCN4CCOCC4)nc4ccc(CNc5ccccc5CCCO)cc43)cccc21 [Compound 224], which Activity is on record?
A: 8.5

Q: With Cc1ccc(CCCO)c(NCc2ccc3nc(NCCCN4CCOCC4)n(Cc4ccccc4O)c3c2)c1 [Compound 227] as the molecule, how does the Activity read?
A: 8.5

Q: With Cc1ccc(CCO)c(NCc2ccc3nc(NCCCN4CCOCC4)n(Cc4cccc5c4ncn5C)c3c2)c1 [Compound 229] as the molecule, how does the Activity read?
A: 8.4

Q: For Cn1cnc2c(Cn3c(NCCCN4CCOCC4)nc4ccc(CNc5cc(Br)ccc5CCCO)cc43)cccc21 [Compound 232], which Activity is on record?
A: 8.4

Q: For C#Cc1ccc(CCO)c(NCc2ccc3nc(NCCCN4CCOCC4)n(Cc4cccc5cccnc45)c3c2)c1 [Compound 235], which Activity is on record?
A: 8.3

Q: With C#Cc1ccc(CCO)c(NCc2ccc3nc(NCCCN4CCOCC4)n(Cc4cccc5c4ncn5C)c3c2)c1 [Compound 236] as the molecule, how does the Activity read?
A: 8.1

Q: With Cn1cnc2c(Cn3c(NCCCN4CCOCC4)nc4ccc(CNc5ccccc5CCO)cc43)cccc21 [Compound 237] as the molecule, how does the Activity read?
A: 7.9

Q: With Cn1cnc2c(Cn3c(NCCCN4CCOCC4)nc4ccc(CNc5ccccc5CCC(N)=O)cc43)cccc21 [Compound 238] as the molecule, how does the Activity read?
A: 7.9

Q: Which Activity does the source give for COc1ccc(C)nc1Cn1c(NCCCN2CCOCC2)nc2ccc(CNc3ccccc3CCCO)cc21 [Compound 239] here?
A: 7.9

Q: For COc1ccc(C)nc1Cn1c(NCCCN2CCOCC2)nc2ccc(CN(CCO)c3cc(C)cc(C)c3)cc21 [Compound 240], which Activity is on record?
A: 7.9

Q: With Cn1cnc2c(Cn3c(NCCCN4CCOCC4)nc4ccc(CNc5cc(C(F)(F)F)ccc5CCCO)cc43)cccc21 [Compound 241] as the molecule, how does the Activity read?
A: 7.9

Q: For Cn1cnc2c(Cn3c(NCCCN4CCOCC4)nc4ccc(CNc5ccccc5CCN5CCOCC5)cc43)cccc21 [Compound 242], which Activity is on record?
A: 7.8

Q: For Cc1nc(C)c(Cn2c(NCCCN3CCOCC3)nc3ccc(CNc4ccccc4CCCO)cc32)nc1C [Compound 243], which Activity is on record?
A: 7.8

Q: Which Activity does the source give for Cc1ccc(CCCO)c(NCc2ccc3nc(NCCCN4CCOCC4)n(Cc4cccc(C)n4)c3c2)c1 [Compound 274] here?
A: 7.2

Q: With Cc1ccc(CCO)c(NCc2ccc3nc(NCCCN4CCOCC4)n(Cc4cccc(C)n4)c3c2)c1 [Compound 275] as the molecule, how does the Activity read?
A: 7.2

Q: With Cc1ccc(C)c(NCc2ccc3c(c2)nc(NCCCN2CCOCC2)n3C2CCCc3nc(C)c(C)nc32)c1 (stereo not drawn) [Compound 276] as the molecule, how does the Activity read?
A: 7.2

Q: Which Activity does the source give for Cc1cccc(NCc2ccc3nc(NCCCN4CCOCC4)n(Cc4cccc5c4ncn5C)c3c2)c1CCO [Compound 277] here?
A: 7.1

Q: Which Activity does the source give for Cc1cc(C)cc(N(CCO)Cc2ccc3nc(NCCCN4CCOCC4)n(Cc4cccc(Br)n4)c3c2)c1.Cl [Compound 278] here?
A: 7.1

Q: With COc1ccc(C)nc1Cn1c(NCCCN2CCOCC2)nc2ccc(CNc3ccccc3CO)cc21 [Compound 279] as the molecule, how does the Activity read?
A: 7.1

Q: With COc1ccc(C)nc1Cn1c(NCCCN2CCOCC2)nc2ccc(CNc3ccc(C)cc3CO)cc21 [Compound 280] as the molecule, how does the Activity read?
A: 7.1

Q: With Cc1cc(C)cc(N(CCO)Cc2ccc3nc(NCCCN4CCOCC4)n(Cc4cccc(C)n4)c3c2)c1 [Compound 281] as the molecule, how does the Activity read?
A: 7.1

Q: For Cc1cccc(NCc2ccc3nc(NCCCN4CCOCC4)n(Cc4nc(C)c(C)nc4C)c3c2)c1CCO [Compound 282], which Activity is on record?
A: 7.1

Q: With Cc1cccc(NCc2ccc3nc(NCCCN4CCOCC4)n(Cc4nc(C)c(C)nc4C)c3c2)c1 [Compound 283] as the molecule, how does the Activity read?
A: 7.1

Q: Which Activity does the source give for Cc1ccc(NCc2ccc3nc(NCCCN4CCOCC4)n(Cc4nc(C)c(C)nc4C)c3c2)c(CO)c1 [Compound 284] here?
A: 7.1

Q: Which Activity does the source give for Cc1cccc(NCc2ccc3nc(NCCCN4CCOCC4)n(Cc4nc(C)c(C)nc4C)c3c2)c1CO [Compound 285] here?
A: 7.1

Q: With Cc1nc2c(nc1C)C(n1c(NCCCN3CCOCC3)nc3cc(CNc4ccccc4CCO)ccc31)CCC2 (stereo not drawn) [Compound 286] as the molecule, how does the Activity read?
A: 7.1

Q: For Cc1nc2c(nc1C)C(n1c(NCCCN3CCOCC3)nc3cc(CNc4ccccc4CO)ccc31)CCC2 (stereo not drawn) [Compound 287], which Activity is on record?
A: 7.1

Q: Which Activity does the source give for Cn1cnc2c(Cn3c(NCCCN4CCOCC4)nc4ccc(CNc5ccccc5C(N)=O)cc43)cccc21 [Compound 288] here?
A: 7

Q: With Cc1nc(C)c(Cn2c(NCCCN3CCOCC3)nc3ccc(CNc4cc(Cl)cc(Cl)c4)cc32)nc1C [Compound 289] as the molecule, how does the Activity read?
A: 7

Q: With C#Cc1cccc(NCc2ccc3nc(NCCCN4CCOCC4)n(Cc4nc(C)c(C)nc4C)c3c2)c1 [Compound 290] as the molecule, how does the Activity read?
A: 7

Q: With Cc1nc(C)c(Cn2c(NCCCN3CCOCC3)nc3ccc(CNc4ccc(C(N)=O)cc4)cc32)nc1C [Compound 291] as the molecule, how does the Activity read?
A: 7

Q: For Cc1cccc(NCc2ccc3c(c2)nc(NCCCN2CCOCC2)n3C2CCCc3nc(C)c(C)nc32)c1CCO (stereo not drawn) [Compound 292], which Activity is on record?
A: 7

Q: Which Activity does the source give for Cc1cccc(NCc2ccc3c(c2)nc(NCCCN2CCOCC2)n3C2CCCc3nc(C)c(C)nc32)c1CO (stereo not drawn) [Compound 293] here?
A: 7

Q: For OCc1ccc2c(c1)nc(NCCCN1CCOCC1)n2Cc1cccc(Br)n1 [Compound 294], which Activity is on record?
A: 6.9

Q: With Cc1cccc(NCc2ccc3nc(NCCCN4CCOCC4)n(Cc4cccc5c4ncn5C)c3c2)c1 [Compound 295] as the molecule, how does the Activity read?
A: 6.9

Q: With Cn1cnc2c(Cn3c(NCCCN4CCOCC4)nc4ccc(CNc5ccc(C(N)=O)cc5)cc43)cccc21 [Compound 296] as the molecule, how does the Activity read?
A: 6.9

Q: With COc1ccc(C)nc1Cn1c(NCCCN2CCOCC2)nc2ccc(CNc3cccc(Br)c3)cc21 [Compound 297] as the molecule, how does the Activity read?
A: 6.9

Q: Which Activity does the source give for COc1ccc(C)nc1Cn1c(NCCCN2CCOCC2)nc2ccc(CNc3cccc(C)c3CO)cc21 [Compound 298] here?
A: 6.9

Q: With Cc1nc(C)c(Cn2c(NCCCN3CCOCC3)nc3ccc(CNc4ccccc4CCN4CCOCC4)cc32)nc1C [Compound 299] as the molecule, how does the Activity read?
A: 6.9

Q: For Cc1nc(C)c(Cn2c(NCCCN3CCOCC3)nc3ccc(CNc4cccc(CCO)c4)cc32)nc1C [Compound 300], which Activity is on record?
A: 6.9

Q: Which Activity does the source give for Cc1ccc(CCCO)c(NCc2ccc3c(c2)nc(NCCCN2CCOCC2)n3Cc2ncccc2O)c1 [Compound 301] here?
A: 6.8

Q: With Cc1cc(C)cc(N(CCCC(N)=O)Cc2ccc3nc(NCCCN4CCOCC4)n(Cc4ccc(F)cc4)c3c2)c1 [Compound 315] as the molecule, how does the Activity read?
A: 6.5

Q: With Cc1ccc(CCCO)c(NCc2ccc3c(c2)nc(NCCCN2CCOCC2)n3Cc2cccc3c2ncn3C)c1 [Compound 328] as the molecule, how does the Activity read?
A: 5.8

Q: With Cc1nc2c(nc1C)C(n1c(NCCCN3CCOCC3)nc3cc(CNc4cc(Cl)cc(Cl)c4)ccc31)CCC2 (stereo not drawn) [Compound 331] as the molecule, how does the Activity read?
A: 5.7

Q: With Cc1cccc(Cn2c(NCCCN3CCOCC3)nc3ccc(CNc4ccccc4CCO)cc32)n1 [Compound 333] as the molecule, how does the Activity read?
A: 5.5

Q: With Cc1cc(C)cc(NCc2ccc3nc(NCCCN4CCOCC4)n(Cc4cccc(C)n4)c3c2)c1 [Compound 334] as the molecule, how does the Activity read?
A: 5.5

Q: For Cc1cccc(Cn2c(NCCCN3CCOCC3)nc3ccc(CNc4cccc(C)c4CCO)cc32)n1 [Compound 335], which Activity is on record?
A: 5.5

Q: With Cc1nc2c(nc1C)C(n1c(NCCCN3CCOCC3)nc3cc(CO)ccc31)CCC2 (stereo not drawn) [Compound 336] as the molecule, how does the Activity read?
A: 5.4

Q: With Cc1cccc(NCc2ccc3nc(NCCCN4CCOCC4)n(Cc4cccc(C)n4)c3c2)c1 [Compound 338] as the molecule, how does the Activity read?
A: 5.4

Q: For Cc1nc2c(nc1C)C(n1c(NCCCN3CCOCC3)nc3cc(CNc4ccccc4C(N)=O)ccc31)CCC2 (stereo not drawn) [Compound 340], which Activity is on record?
A: 5.3

Q: For Cc1cccc(Cn2c(NCCCN3CCOCC3)nc3ccc(CNc4ccccc4CCN4CCOCC4)cc32)n1 [Compound 345], which Activity is on record?
A: 5

Q: With COc1ccc(C)nc1Cn1c(NCCCN2CCOCC2)nc2ccc(CO)cc21 [Compound 346] as the molecule, how does the Activity read?
A: 4.9

Q: With Cc1cccc(Cn2c(NCCCN3CCOCC3)nc3ccc(CNc4cccc(C)c4CO)cc32)n1 [Compound 347] as the molecule, how does the Activity read?
A: 4.9

Q: Which Activity does the source give for COc1ccc(C)nc1Cn1c(NCCCN2CCOCC2)nc2cc(CNc3cc(C)ccc3CCCO)ccc21 [Compound 348] here?
A: 4.8

Q: Which Activity does the source give for Cc1ccc(CCCO)c(NCc2ccc3c(c2)nc(NCCCN2CCOCC2)n3Cc2cccc(C)n2)c1 [Compound 350] here?
A: 4.7
